Measurements reported in article PMC12222847 (Scientific Reports, 2025).

Biological target: T1, CK1.2 (Trypanosoma brucei, UniProt Q57W25)
T1 sequence (Q57W25 1-332): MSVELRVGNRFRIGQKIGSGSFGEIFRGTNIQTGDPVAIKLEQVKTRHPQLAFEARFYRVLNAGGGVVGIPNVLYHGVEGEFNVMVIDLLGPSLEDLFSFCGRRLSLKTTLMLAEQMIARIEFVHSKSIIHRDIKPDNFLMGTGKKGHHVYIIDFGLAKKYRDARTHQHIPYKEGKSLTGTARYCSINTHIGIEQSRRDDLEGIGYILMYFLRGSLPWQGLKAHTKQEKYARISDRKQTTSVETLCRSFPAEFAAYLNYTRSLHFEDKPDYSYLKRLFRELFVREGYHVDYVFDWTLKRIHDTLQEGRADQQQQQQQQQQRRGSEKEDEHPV
Type: biochemical

Row | IC50 [nM] | SMILES
1 | 49.2 | NC(=O)c1ccc(-c2nc(-c3ccc4c(c3)OCO4)c(-c3ccccn3)[nH]2)cc1 [SB-431542]
2 | 29.1 | Nc1nccc(-c2c(-c3ccc(F)cc3)ncn2C2CCCCC2)n1 [PF-670462]
